# Test results reported in US20250074911A1, “MACROCYCLIC BTK INHIBITORS” (Crossfire Oncology Holding B.V., priority 2021, published 2025).
# Where two headings read alike, the source gives them in different places.
# Assays:
# [1] = biological target: full-length BTK C481S enzyme (Homo sapiens (Human), UniProt Q06187, C481S); assay: Biochemical kinase assay BTK C481S (IMAP)
# Description: Biochemical kinase assay BTK […] To determine the inhibitory activity of compounds on BTK C481S enzyme activity, the IMAP® assay (Molecular Devices) was used. […] After pre-incubation of 1 hour in the dark at room temperature, fluorescein-labeled MBP-derived substrate peptide (Molecular Devices, cat. no. RP 7123) was added, followed by ATP to start the reaction. Final enzyme concentration was 1.2 nM final substrate concentration 50 nM, and final ATP concentration was 7 μM. The reaction was allowed to proceed for 2 hours at room temperature in the dark. The reaction was stopped by quenching with IMAP progressive binding solution according to the protocol of the manufacturer (Molecular Devices). Fluorescein polarization was measured on an Envision multimode reader (Perkin Elmer, Waltham, MA, U.S.A.). IC50 were calculated using XLfitTM5 software (ID Business Solutions, Ltd., Surrey, U.K.). Results of the BTK […] binding affinity are shown in Table 1 below. • IC50 BTK […]: […]
# [2] = system: wt-TMD8 diffuse large B-cell lymphoma cells; assay: Cell proliferation assay wt-TMD8 (ATPlite, 120 hours); type: cell-based; details: wt-TMD8 cells, 120 hours, ATPlite, read-out: IC50 wt-TMD8
# Description: Cell proliferation assay wt-TMD8 diffuse large B-cell lymphoma cells were purchased from Tokyo Medical and Dental University and cultured in RPMI-1640 cell culture medium (cat. no. 61870036, Life Technologies), supplemented with 10% (v/v) heat-inactivated fetal bovine calf serum and 1% penicillin/[…]. 1600 cells per well (in 45 μl) were seeded in a white 384-well culture plate (cat. no. 781080, Greiner Bio-One) and allowed to rest for at least 5 hours at 37° C., 95% humidity, and 5% CO2. 5 μl compound solution was added to the cells and incubation was continued for 120 hours (5 days), followed by addition of 24 μl ATPlite 1Step™ (PerkinElmer, Groningen, The Netherlands) solution was added to each well. Luminescence was recorded on an Envision multimode reader. The cell signal at the start of incubation was recorded separately in order to distinguish between cell population growth and cell death. In addition, maximum growth was determined by incubation of a duplicate without compound in the presence of 0.3% DMSO. Percentage growth was used as the main y-axis signal.
# [3] = biological target: full-length wt-BTK enzyme (Homo sapiens (Human), UniProt Q06187); assay: Biochemical kinase assay wt-BTK (IMAP)
# Description: Biochemical kinase assay wt-BTK To determine the inhibitory activity of compounds on wt-BTK enzyme activity, the IMAP® assay (Molecular Devices) was used. […] After pre-incubation of 1 hour in the dark at room temperature, fluorescein-labeled MBP-derived substrate peptide (Molecular Devices, cat. no. RP 7123) was added, followed by ATP to start the reaction. Final enzyme concentration was 1.2 nM, final substrate concentration 50 nM, and final ATP concentration was 4 μM. The reaction was allowed to proceed for 2 hours at room temperature in the dark. The reaction was stopped by quenching with IMAP progressive binding solution according to the protocol of the manufacturer (Molecular Devices). Fluorescein polarization was measured on an Envision multimode reader (Perkin Elmer, Waltham, MA, U.S.A.). […] Results of the wt-BTK binding affinity are shown in Table 1 below. • IC50 wt-BTK: […]
# REC-1 T474I cell lines = assay: Cell proliferation assay REC-1 BTK T474I knock-in cells (ATPlite, 72 hours); type: cell-based; details: 72 hours, read-out: IC50 REC-1 T474I
# Description: Cell proliferation assay Generation of BTK […] knock-in cell lines wt-REC-1 cell lines expressing mutant BTK were created at Synthego Corporation. Cell lines expressing BTK […] was generated via CRISPR/Cas9. Monoclonal REC-1 […] cell lines were obtained by single cell cloning. The mutation status of all cell lines was confirmed via sequencing. […] Luminescence was recorded on an Envision multimode reader. The cell signal at the start of incubation was recorded separately in order to distinguish between cell population growth and cell death. In addition, maximum growth was determined by incubation of a duplicate without compound in the presence of 0.3% DMSO. Percentage growth was used as the main y-axis signal.
# [4] = system: wt-REC-1 mantle cell lymphoma cells; assay: Cell proliferation assay wt-REC-1 (ATPlite, 72 hours); type: cell-based; details: read-out: IC50 wt-REC-1
# Description: Results of the BTK […] binding affinity are shown in Table 1 below. • IC50 BTK […]: […] wt-REC-1 mantle cell lymphoma cells were purchased from American Type Culture Collection via Synthego Corporation (cat. no. CRL-3004, ATCC). […] Luminescence was recorded on an Envision multimode reader. The cell signal at the start of incubation was recorded separately in order to distinguish between cell population growth and cell death. In addition, maximum growth was determined by incubation of a duplicate without compound in the presence of 0.3% DMSO. Percentage growth was used as the main y-axis signal. IC50s were fitted by non-linear regression using IDBS XLfitTM5 using a 4-parameter logistic curve, yielding a maximum signal, minimum signal, hill-parameter and IC50. Results of the wt-REC-1 proliferation are shown in Table 1 below. • IC50 wt-REC-1: […]
# full-length wt-BTK enzyme, sequence (Q06187 whole entry): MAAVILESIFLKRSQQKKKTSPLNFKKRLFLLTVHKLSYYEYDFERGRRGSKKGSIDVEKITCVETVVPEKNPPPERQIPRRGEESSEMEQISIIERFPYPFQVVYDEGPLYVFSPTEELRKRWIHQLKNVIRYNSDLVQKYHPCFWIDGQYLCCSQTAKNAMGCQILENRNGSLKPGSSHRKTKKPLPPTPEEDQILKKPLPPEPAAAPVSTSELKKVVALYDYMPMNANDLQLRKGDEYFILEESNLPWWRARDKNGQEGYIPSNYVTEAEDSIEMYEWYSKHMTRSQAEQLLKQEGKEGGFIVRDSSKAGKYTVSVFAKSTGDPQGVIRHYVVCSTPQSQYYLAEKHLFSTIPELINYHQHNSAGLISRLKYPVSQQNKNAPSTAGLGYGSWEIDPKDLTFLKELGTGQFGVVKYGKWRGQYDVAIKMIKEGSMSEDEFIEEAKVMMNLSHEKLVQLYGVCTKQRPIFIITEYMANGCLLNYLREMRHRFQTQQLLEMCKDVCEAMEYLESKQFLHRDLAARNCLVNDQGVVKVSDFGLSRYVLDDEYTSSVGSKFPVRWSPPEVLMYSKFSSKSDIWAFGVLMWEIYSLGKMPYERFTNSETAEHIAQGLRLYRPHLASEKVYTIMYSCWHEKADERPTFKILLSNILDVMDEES
# full-length BTK C481S enzyme, sequence (Q06187 whole entry C481S): as the sequence (Q06187 whole entry) above, with C481S counted along it
SMILES,IC50 [1] [nM],IC50 ([2]; B-cell) [nM],IC50 [3] [nM],"IC50 (REC-1 T474I cell lines; Homo sapiens, Rec1) [nM]",IC50 ([4]; 72 hours) [nM],IC50 [2] [nM],IC50 (REC-1 T474I cell lines) [nM],IC50 ([4]; 72 h) [nM]
"CC1NC/C=C/c2cnc(N)c3c(-c4ccc(C(=O)Nc5cc(C(F)(F)F)ccn5)cc4)nn(c23)CC[C@@H](C)NC1=O (single isomer, unassigned) [Example 143]",< 5,< 100,< 5,500 to 10000,100 to 1000,,,
"CC1NC/C=C/c2cnc(N)c3c(-c4ccc(C(=O)Nc5cc(C(F)(F)F)ccn5)cc4)nn(c23)CC[C@@H](C)NC1=O (single isomer, unassigned) [Example 144]",5 to 50,,5 to 50,,1000 to 10000,< 100,500 to 10000,
CN1C/C=C/c2cnc(N)c3c(-c4ccc(C(=O)Nc5cc(C(F)(F)F)ccn5)cc4)nn(c23)[C@@H]2CCC[C@H](C2)C(=O)NCC1 [Example 3],< 5,< 100,< 5,500 to 10000,,,,100 to 1000
Nc1ncc2c3c1c(-c1ccc(C(=O)Nc4cc(C(F)(F)F)ccn4)cc1)nn3[C@@H]1CCC[C@H](C1)C(=O)NCC/C=C/2 [Example 4],5 to 50,100 to 1000,5 to 50,500 to 10000,,,,100 to 1000
CN1CC/C=C/c2cnc(N)c3c(-c4ccc(C(=O)Nc5cc(C(F)(F)F)ccn5)cc4)nn(c23)[C@@H]2CCC[C@H](C2)C(=O)NCC1 [Example 5],< 5,< 100,< 5,100 to 500,,,,< 100
Nc1ncc2c3c1c(-c1ccc(C(=O)Nc4cc(C(F)(F)F)ccn4)cc1)nn3[C@@H]1CCC[C@H](C1)NC(=O)CCCC[C@@H](O)/C=C/2 [Example 12],< 5,< 100,< 5,500 to 10000,,,,< 100
Nc1ncc2c3c1c(-c1ccc(C(=O)Nc4cc(C(F)(F)F)ccn4)cc1)nn3[C@@H]1CCC[C@H](C1)NC(=O)CCC[C@H](O)/C=C/2 [Example 13],< 5,< 100,< 5,500 to 10000,,,,100 to 1000
Nc1ncc2c3c1c(-c1ccc(C(=O)Nc4cc(C(F)(F)F)ccn4)cc1)nn3[C@@H]1CCC[C@H](C1)NC(=O)CCC[C@@H](O)/C=C/2 [Example 14],< 5,< 100,< 5,500 to 10000,,,,100 to 1000
Nc1ncc2c3c1c(-c1ccc(C(=O)Nc4cc(C(F)(F)F)ccn4)cc1)nn3[C@@H]1CCC[C@H](C1)NC(=O)CCCNC/C=C/2 [Example 15],< 5,< 100,< 5,,,,,100 to 1000
Nc1ncc2c3c1c(-c1ccc(C(=O)Nc4cc(C(F)(F)F)ccn4)cc1)nn3[C@@H]1CCC[C@H](C1)NC(=O)CCCCCC/C=C/2 [Example 16],< 5,< 100,< 5,< 100,,,,< 100
Nc1ncc2c3c1c(-c1ccc(C(=O)Nc4ccccn4)cc1)nn3[C@@H]1CCC[C@H](C1)NC(=O)CCCC/C=C/2 [Example 23],< 5,< 100,< 5,100 to 500,,,,< 100
Nc1ncc2c3c1c(-c1ccc(C(=O)Nc4ccccn4)cc1)nn3[C@@H]1CCC[C@H](C1)NC(=O)CCCCCC/C=C/2 [Example 29],< 5,< 100,< 5,100 to 500,,,,< 100
CN1CC/C=C/c2cnc(N)c3c(-c4ccc(C(=O)Nc5cc(C(F)(F)F)ccn5)cc4)nn(c23)[C@@H]2CCC[C@H](C2)NC(=O)C1 [Example 30],< 5,< 100,< 5,100 to 500,,,,< 100
Nc1ncc2c3c1c(-c1ccc(C(=O)Nc4cc(C(F)(F)F)ccn4)cc1)nn3[C@@H]1CCC[C@H](C1)NC(=O)CNCCC/C=C/2 [Example 31],< 5,< 100,< 5,< 100,,,,< 100
Nc1ncc2c3c1c(-c1ccc(C(=O)Nc4cc(C(F)(F)F)ccn4)cc1)nn3[C@@H]1CCC[C@H](C1)NC(=O)CNCC/C=C/2 [Example 32],< 5,< 100,< 5,100 to 500,,,,< 100
CC(=O)N1CC/C=C/c2cnc(N)c3c(-c4ccc(C(=O)Nc5cc(C(F)(F)F)ccn5)cc4)nn(c23)[C@@H]2CCC[C@H](C2)NC(=O)C1 [Example 35],< 5,< 100,< 5,100 to 500,,,,< 100
Nc1ncc2c3c1c(-c1ccc(C(=O)Nc4ccccn4)cc1)nn3[C@@H]1CCC[C@H](C1)NC(=O)CCCCCCC2 [Example 126],< 5,,< 5,100 to 500,,,,< 100
Nc1ncc2c3c1c(-c1ccc(C(=O)Nc4cc(C(F)(F)F)ccn4)cc1)nn3[C@@H]1CCC[C@H](C1)NC(=O)CNCCCC2 [Example 127],< 5,,< 5,500 to 10000,,,,100 to 1000
Nc1ncc2n3c(nc(-c4ccc(C(=O)Nc5cc(C(F)(F)F)ccn5)cc4)c13)[C@@H]1CCC[C@H](C1)NC(=O)CCC/C=C/C2 [Example 133a],5 to 50,,5 to 50,500 to 10000,,,,100 to 1000
